Test results: ChEMBL document CHEMBL1147943, “Antiproliferative activity of 4-chloro-5,6-dihydro-2H-pyrans. Part 2: Enhancement of drug cytotoxicity” (2007)
Blank lines part the entries; values can stand above or below the molecule they belong to.

Tests used:
Format in all cases: functional
Conditions in all cases: for CC50: read-out: LC50 (the source's name)
A2780 = assay: Antiproliferative activity against human A2780 cells
SW1573 = assay: Antiproliferative activity against human SW1573 cells
WiDr = assay: Antiproliferative activity against human WiDr cells

SMILES: CC[C@H]1CC(Cl)=C([Si](C)(C)C)[C@@H](C2CCCCC2)O1
GI50 (A2780): 16 µM | TGI (A2780): 35 µM | CC50 (A2780): 75 µM | GI50 (SW1573): 22 µM | TGI (SW1573): 49 µM | CC50 (SW1573): 91 µM | GI50 (WiDr): 29 µM | TGI (WiDr): 73 µM | CC50 (WiDr): 95 µM

SMILES: C[C@@H]1O[C@H](CCC=C(Br)Br)C([Si](C)(C)C)=C(Cl)[C@H]1C
GI50 (A2780): 16 µM | TGI (A2780): 33 µM | CC50 (A2780): 70 µM | GI50 (SW1573): 22 µM | TGI (SW1573): 43 µM | CC50 (SW1573): 87 µM | GI50 (WiDr): 25 µM | TGI (WiDr): 90 µM

GI50 (A2780): 37 µM | GI50 (SW1573): 41 µM
SMILES: C#CCCC1C=C(Cl)CCO1 (centres undefined)
GI50 (WiDr): > 100 µM

SMILES: C#CCC[C@H]1O[C@@H](C)[C@H](C)C(Cl)=C1[Si](C)(C)C
GI50 (A2780): 21 µM | TGI (A2780): 39 µM | CC50 (A2780): 75 µM | GI50 (SW1573): 19 µM | TGI (SW1573): 37 µM | CC50 (SW1573): 75 µM | GI50 (WiDr): 24 µM | TGI (WiDr): 68 µM | CC50 (WiDr): 85 µM

SMILES: C[C@H]1CC(Cl)=C([Si](C)(C)C)[C@@H](C2CCCCC2)O1
GI50 (A2780): 17 µM | TGI (A2780): 32 µM | CC50 (A2780): 61 µM | GI50 (SW1573): 16 µM | TGI (SW1573): 31 µM | CC50 (SW1573): 62 µM | GI50 (WiDr): 15 µM | TGI (WiDr): 33 µM | CC50 (WiDr): 74 µM

SMILES: C[C@@H]1O[C@H](C2CCCCC2)C([Si](C)(C)C)=C(Cl)[C@H]1C
GI50 (A2780): 19 µM | TGI (A2780): 38 µM | CC50 (A2780): 77 µM | GI50 (SW1573): 20 µM | TGI (SW1573): 41 µM | CC50 (SW1573): 76 µM | GI50 (WiDr): 42 µM | TGI (WiDr): 84 µM

GI50 (A2780): > 100 µM | GI50 (SW1573): > 100 µM
SMILES: CC(C)CC1C=C(Cl)CCO1 (centres undefined)
GI50 (WiDr): > 100 µM

GI50 (A2780): 20 µM | GI50 (SW1573): 26 µM
SMILES: ClC1=CC(C2CCCCC2)OCC1 (centres undefined)
GI50 (WiDr): 100 µM

SMILES: ClC1=CC(CCCCCCCCCCC2C=C(Cl)CCO2)OCC1 (centres undefined)
GI50 (A2780): 8.6 µM | TGI (A2780): 25 µM | CC50 (A2780): 65 µM | GI50 (SW1573): 14 µM | TGI (SW1573): 36 µM | CC50 (SW1573): 85 µM | GI50 (WiDr): 20 µM | TGI (WiDr): 61 µM | CC50 (WiDr): 89 µM

SMILES: ClC1=CC(CCC=C(Br)Br)OCC1 (centres undefined)
GI50 (A2780): 16 µM | TGI (A2780): 53 µM | CC50 (A2780): 76 µM | GI50 (SW1573): 30 µM | TGI (SW1573): 92 µM | GI50 (WiDr): 23 µM | TGI (WiDr): 57 µM | CC50 (WiDr): 96 µM

GI50 (A2780): > 100 µM | GI50 (SW1573): > 100 µM
SMILES: CC[C@@H](C)[C@H]1O[C@@H](C)CC(Cl)=C1[Si](C)(C)C
GI50 (WiDr): > 100 µM

SMILES: C[Si](C)(C)C1=C(Cl)C[C@H](C2CCCCC2)O[C@@H]1C1CCCCC1
GI50 (A2780): 22 µM | TGI (A2780): 46 µM | CC50 (A2780): 90 µM | GI50 (SW1573): 23 µM | TGI (SW1573): 48 µM | CC50 (SW1573): 88 µM | GI50 (WiDr): 30 µM | TGI (WiDr): 81 µM | CC50 (WiDr): 97 µM

SMILES: C=CCC[C@H]1O[C@@H](C)[C@H](C)C(Cl)=C1[Si](C)(C)C
GI50 (A2780): 17 µM | TGI (A2780): 36 µM | CC50 (A2780): 19 µM | GI50 (SW1573): 23 µM | TGI (SW1573): 55 µM | CC50 (SW1573): 92 µM | GI50 (WiDr): 37 µM

SMILES: CC(C)CC1OCCC(Cl)=C1[Si](C)(C)C (centres undefined)
GI50 (A2780): 27 µM | TGI (A2780): 66 µM | CC50 (A2780): 92 µM | GI50 (SW1573): 10 µM | TGI (SW1573): 28 µM | CC50 (SW1573): 65 µM | GI50 (WiDr): 20 µM | TGI (WiDr): 39 µM | CC50 (WiDr): 79 µM

SMILES: C[C@H]1CC(Cl)=C[C@@H](C2CCCCC2)O1
GI50 (A2780): 19 µM | TGI (A2780): 38 µM | CC50 (A2780): 79 µM | GI50 (SW1573): 12 µM | TGI (SW1573): 43 µM | GI50 (WiDr): 65 µM

GI50 (A2780): 34 µM | GI50 (SW1573): 30 µM
SMILES: C[Si](C)(C)C1=C(Cl)C[C@H](Cc2ccccc2)O[C@@H]1C1CCCCC1
TGI (A2780): 78 µM | GI50 (WiDr): 62 µM | TGI (WiDr): 88 µM

SMILES: C[Si](C)(C)C1=C(Cl)C[C@H](Cc2ccccc2)O[C@@H]1CCCCCCCCCC1C=C(Cl)CCO1 (some centres undefined)
GI50 (A2780): 23 µM | TGI (A2780): 47 µM | CC50 (A2780): 96 µM | GI50 (SW1573): 30 µM | TGI (SW1573): 68 µM | GI50 (WiDr): 67 µM
